Data: paper PMC6271077, “Synthesis, Anticancer and Antibacterial Activity of Salinomycin N-Benzyl Amides” (Molecules, 2014)

Columns and labels:
LoVo/dx = assay: Antiproliferative SRB assay, LoVo/dx; format: cell-based, human
LoVo = assay: Antiproliferative SRB assay, LoVo; format: cell-based, human
BALB/3T3 = assay: Antiproliferative SRB assay, normal fibroblasts BALB/3T3; format: cell-based; settings: Mus musculus, BALB/3T3, normal murine embryonic fibroblasts, 72 h, mean ± SD, read-out: IC50 BALB/3T3 (normal cells)
From the text: Four human cancer cell lines and one normal cell line were used to evaluate anticancer activity of SAL and its N-benzyl amides: human acute promyelocytic leukemia (HL-60) and its vincristine resistant subline (HL-60/vinc), human colon adenocarcinoma cell lines sensitive (LoVo) and resistant to doxorubicin (LoVo/dx) as well as also normal murine embryonic fibroblast cell line (BALB/3T3). The BALB/3T3 cell line was purchased from the American Type Culture Collection (ATCC Rockville, MD, USA), HL-60 cell line from European Type Culture Collection by courtesy of Professor Spik and Dr Mazurier (Laboratory of Biological Chemistry USTL, Lille, France) and HL-60/vinc, LoVo and LoVo/dx by courtesy of Prof. E. Borowski (Technical University of Gdańsk, Gdańsk, Poland). All the cell lines are maintained in the Institute of Immunology and Experimental Therapy (IIET), Wrocław, Poland. […]
After 72 h of incubation with tested compounds the cells were fixed in situ by gently adding of 50 µL per well of cold 50% trichloroacetic acid TCA (Avantor Performance Materials, City, Poland) and were incubated at 4 °C for 1 h. […] Absorbance of each solution was read at Synergy H4 photometer (BioTek Instruments, Winooski, VT, USA) at 540 nm wavelength. […]

HL-60/vinc = assay: Antiproliferative MTT assay, HL-60/vinc; format: cell-based, human
Method in brief: (§1)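 Leukemia cells seeded at 10^4 per well and exposed 24 h later to four concentrations (100–0.1 µg/mL) for 72 h; HL-60/vinc cultured with doxorubicin. MTT added 4 h, formazan lysed 24 h, absorbance 570 nm; IC50 from triplicates, ≥3 independent experiments.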

HL-60 = assay: Antiproliferative MTT assay, HL-60; format: cell-based, human
Method in brief: as §1

Compound: COc1cccc2c1C(=O)c1c(O)c3c(c(O)c1C2=O)C[C@@](O)(C(=O)CO)C[C@@H]3O[C@H]1C[C@H](N)[C@H](O)[C@H](C)O1 [doxorubicin, reference compound]
- IC50 (LoVo/dx; Homo sapiens, LoVo/DX, doxorubicin resistant subline, 72 h, SRB, mean ± SD, read-out: IC50 LoVo/dx): 5460 ± 1560 nM
- IR LoVo/DX (LoVo/dx; IR = IC50 LoVo/dx / IC50 LoVo): 36.40
- SI LoVo/DX (LoVo/dx; SI = IC50 BALB/3T3 / IC50 LoVo/dx): 0.03
- IC50 (LoVo; Homo sapiens, LoVo, 72 h, SRB, mean ± SD, read-out: IC50 LoVo): 150 ± 60 nM
- SI LoVo (LoVo; SI = IC50 BALB/3T3 / IC50 LoVo): 1.20
- IC50 (BALB/3T3): 180 ± 70 nM
- IC50 (HL-60/vinc; Homo sapiens, HL60/vinc, vincristine-resistant subline, 72 h, MTT, mean ± SD, NA: not active in concentrations used (up to 100 µg/mL), read-out: IC50 HL-60/vinc): 880 ± 260 nM
- IR HL-60/vinc (HL-60/vinc; IR = IC50 HL-60/vinc / IC50 HL-60): 22.00
- SI HL-60/vinc (HL-60/vinc; SI = IC50 BALB/3T3 / IC50 HL-60/vinc): 0.20
- IC50 (HL-60; Homo sapiens, HL-60, 72 h, MTT, mean ± SD, NA: not active in concentrations used (up to 100 µg/mL), read-out: IC50 HL-60): 40 ± 40 nM
- SI HL-60 (HL-60; SI = IC50 BALB/3T3 / IC50 HL-60): 4.50
